# Measured values published in patent publication US20060211672A1, “Use of estrogen receptor-beta selective agonists for radiation-or chemotherapy-induced mucositis and radiation cystitis” (Wyeth, priority 2005, published 2006).
# Test system: radiation-induced mucositis
# Assay: Acute radiation model of oral mucositis in hamsters
# Type: in vivo, Syrian Golden Hamsters
# Details: for % Days with mucositis score ≧3 / Days with mucositis score ≧3: once daily beginning on day -1, 40 Gy radiation day 0, scored day 6 to 28; for Days with mucositis score ≧3: Total Days 240
# Source text: The acute radiation model in hamsters has proven to be an accurate, efficient and cost-effective technique to provide a preliminary evaluation of anti-mucositis compounds (Sonis et al., Oral Surg Oral Med Oral Pathol 1990; 69(4):437-448). The course of mucositis in this model is well defined and results in peak scores approximately 14-16 Days following radiation. The acute model has little systemic toxicity, resulting in few hamster deaths which makes the acute model amenable for initial efficacy studies. The acute model has also been used to study specific mechanistic elements in the pathogenesis of mucositis.
# Forty (40) Male LVG Syrian Golden Hamsters (Charles River Laboratories), aged 5 to 6 weeks, with average body weight of 116.3 g at study commencement, were used. Animals were individually numbered using an ear punch and housed 10 animals per cage. Animals were fed with a Purina Labdiet® 5061 rodent diet and water was provided ad libitum. Animals were acclimatized for two days prior to study commencement.
# Animals were randomly and prospectively divided into four (4) treatment groups prior to irradiation. Mucositis was induced using a standardized acute radiation protocol, where a single dose of radiation (40 Gy/dose) was administered to all animals on day 0. Radiation was generated with a 160 kilovolt potential (15-ma) source at a focal distance of 30 cm, hardened with an AI filtration system. Irradiation targeted the left buccal pouch mucosa at a rate of 3.2 Gy/minute. Prior to irradiation, animals were anesthetized with an intra-peritoneal injection of Ketamine (160 mg/kg) and Xylazine (8 mg/kg). The left buccal pouch was everted, fixed and isolated using a lead shield.
# Controls or 3-(3-Fluoro-4-hydroxy-phenyl)-7-hydroxy-naphthalene-1-carbonitrile (Compound 1) were given in the volumes and by the routes described in Table 1 and dosing began the day before radiation treatment.
# The grade of mucositis was scored, beginning day 6, and for every second day thereafter, through and including day 28. For the evaluation of mucositis, the animals were anesthetized with an inhalation anesthetic, and the left pouch everted. Mucositis was scored visually by comparison to a validated photographic scale, ranging from 0 for normal, to 5 for severe ulceration (clinical scoring). In descriptive terms, this scale is defined as follows: Score: Description: • 0 Pouch completely healthy. No erythema or vasodilation. • 1 Light to severe erythema and vasodilation. No erosion of mucosa. • 2 Severe erythema and vasodilation. Erosion of superficial aspects of mucosa leaving denuded areas. Decreased stippling of mucosa. • 3 Formation of off-white ulcers in one or more places. Ulcers may have a yellow/gray appearance due to pseudomembrane. Cumulative size of ulcers should equal about ¼ of the pouch. Severe erythema and vasodilation. • 4 Cumulative seize of ulcers should equal about ½ of the pouch. Loss of pliability. Severe erythema and vasodilation. • 5 Virtually all of pouch is ulcerated. Loss of pliability (pouch can only partially be extracted from mouth)
# A score of 1-2 is considered to represent a mild stage of the disease, whereas a score of 3-5 is considered to indicate moderate to severe mucositis.
# The effect on mucositis of each route of administration of Compound 1 compared to vehicle was assessed by determining the difference in the number of days hamsters in each group have ulcerative (score ≧3) mucositis. Statistical significance was assessed by a Chi-squared test and p<0.05 was considered statistically significant.
smiles,measurement,setting,value
"N#Cc1cc(-c2ccc(O)c(F)c2)cc2ccc(O)cc12 [Compound 1, 3-(3-Fluoro-4-hydroxy-phenyl)-7-hydroxy-naphthalene-1-carbonitrile]",% Days with mucositis score ≧3,"Gavage, 10 mg/kg",44%
same,Days with mucositis score ≧3,"Gavage, 10 mg/kg",106 days
same,% Days with mucositis score ≧3,"Topical (intrapouch), 500 nM",30%
same,Days with mucositis score ≧3,"Topical (intrapouch), 500 nM",72 days
same,"change in the number of days hamsters had ulcerative (score ≧3) mucositis, in words","administered by gavage, vs vehicle",no significant change
same,"number of days animals experienced ulcerative mucositis, in words","administered topically (into the pouch), vs vehicle",significantly reduced
